# Active and inactive are the calls of the source. The calls are words filed in the database; no cut-off is given here.
# Experiments:
# Glutamate receptor 2 = Glutamate receptor 2 (Homo sapiens, UniProt P42262)
# Description: Activation of human GluR2 flip isoform expressed in HEK293 cells assessed as increase of glutamate-induced intracellular calcium level by FLIPR assay
# Liver microsomes [1] = system: Liver microsomes
# Cytochrome P450 2C9 = Cytochrome P450 2C9 (Homo sapiens, UniProt P11712)
# Description: Inhibition of human CYP2C9 after 10 mins
# Liver microsomes [2] = system: Liver microsomes; remark: listed apart in the source
# Cytochrome P450 2C19 = Cytochrome P450 2C19 (Homo sapiens, UniProt P33261)
# Description: Inhibition of human CYP2C19 after 10 mins
# Cytochrome P450 1A2 = molecular target: T1, Cytochrome P450 1A2 (Homo sapiens, UniProt P05177)
# T1 sequence (P05177 whole entry): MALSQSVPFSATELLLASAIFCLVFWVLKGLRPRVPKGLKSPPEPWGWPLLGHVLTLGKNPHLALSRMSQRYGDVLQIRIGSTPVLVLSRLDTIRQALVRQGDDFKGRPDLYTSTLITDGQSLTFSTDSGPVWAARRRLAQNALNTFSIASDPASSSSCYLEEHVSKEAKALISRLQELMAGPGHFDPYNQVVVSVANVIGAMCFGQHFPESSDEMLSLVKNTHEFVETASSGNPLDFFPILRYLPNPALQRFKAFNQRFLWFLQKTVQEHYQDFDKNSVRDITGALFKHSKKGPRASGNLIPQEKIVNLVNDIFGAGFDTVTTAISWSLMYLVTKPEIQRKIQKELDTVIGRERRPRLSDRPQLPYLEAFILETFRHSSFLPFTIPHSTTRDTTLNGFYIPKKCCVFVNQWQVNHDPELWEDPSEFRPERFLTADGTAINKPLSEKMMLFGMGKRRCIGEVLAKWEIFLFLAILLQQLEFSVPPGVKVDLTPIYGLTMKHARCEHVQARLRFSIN
# Description: Inhibition of human CYP1A2 after 10 mins
# Cytochrome P450 2D6 = Cytochrome P450 2D6 (Homo sapiens, UniProt P10635)
# Description: Inhibition of human CYP2D6 after 10 mins
# Cytochrome P450 3A4 = Cytochrome P450 3A4 (Homo sapiens, UniProt P08684)
# Description: Inhibition of human CYP3A4 after 10 mins
# in vivo = conditions: rat, brain/blood
# Description: Ratio of brain AUC (0 to t) to blood AUC (0 to t) in rat
# [3] = Plasma protein binding in rat at 1 ug/ml after 6 hrs by equilibrium dialysis method; type: ADME, cell-free; conditions: read-out: PPB (converted)
# [4] = Half life in Sprague-Dawley rat at 1 mg/kg, iv and 3 mg/kg, po; type: ADME, organism-based; conditions: in vivo
# [5] = Tmax in Sprague-Dawley rat at 3 mg/kg, po; type: ADME, organism-based; set-up: dose 3 mg/kg, route oral; conditions: in vivo
# Brain [6] = assay: Brain tissue binding in rat at 1 ug/ml after 6 hrs by equilibrium dialysis method; type: ADME, tissue-based
# Brain [7] = assay: Drug level in po dosed Lister Hooded rat brain assessed per gram of tissue; type: ADME, organism-based; conditions: in vivo
# [8] = Cmax in Sprague-Dawley rat at 3 mg/kg, po; type: ADME, organism-based; set-up: dose 3 mg/kg, route oral; conditions: in vivo
# [9] = Oral bioavailability in Sprague-Dawley rat at 3 mg/kg; type: ADME, organism-based; conditions: in vivo
# [10] = Volume of distribution at steady state in Sprague-Dawley rat at 1 mg/kg, iv and 3 mg/kg, po; type: ADME, organism-based; conditions: in vivo, read-out: Vdss
# Rattus norvegicus [11] = assay: Antiamnesic activity in po dosed assessed as inhibition of amnesic deficit by step-down passive avoidance test; type: functional, organism-based; conditions: Wistar
# [12] = Blood clearance in Sprague-Dawley rat at 1 mg/kg, iv and 3 mg/kg, po; type: ADME, organism-based
# Rattus norvegicus [13] = assay: Cognitive enhancing effect in po dosed Lister Hooded rat assessed as reversal of 24 hrs delay-induced retention deficit behavior by novel object recognition assay; type: functional; conditions: read-out: MED
# Blood = assay: Drug level in po dosed Lister Hooded rat blood; type: ADME, organism-based; conditions: in vivo
# Rattus norvegicus [14] = assay: Antiamnesic activity in po dosed assessed as inhibition of Scopolamine-induced amnesic deficit administered 3 hrs before Scopolamine challenge by step-down passive avoidance test; type: functional, organism-based; conditions: Wistar
# MDR1 (human) = assay: in vitro; conditions: dog, MDCK-MDR1
# Description: Efflux ratio of permeability from basolateral to apical over apical to basolateral side of MDCK2 cells over expressing human MDR1
# [15] = AUC (0 to t) in rat; type: ADME, organism-based; conditions: plasma
# Description for physchem: Dissociation constant, pKa of the compound
# Sequence of Cytochrome P450 2C19 (P33261 whole entry): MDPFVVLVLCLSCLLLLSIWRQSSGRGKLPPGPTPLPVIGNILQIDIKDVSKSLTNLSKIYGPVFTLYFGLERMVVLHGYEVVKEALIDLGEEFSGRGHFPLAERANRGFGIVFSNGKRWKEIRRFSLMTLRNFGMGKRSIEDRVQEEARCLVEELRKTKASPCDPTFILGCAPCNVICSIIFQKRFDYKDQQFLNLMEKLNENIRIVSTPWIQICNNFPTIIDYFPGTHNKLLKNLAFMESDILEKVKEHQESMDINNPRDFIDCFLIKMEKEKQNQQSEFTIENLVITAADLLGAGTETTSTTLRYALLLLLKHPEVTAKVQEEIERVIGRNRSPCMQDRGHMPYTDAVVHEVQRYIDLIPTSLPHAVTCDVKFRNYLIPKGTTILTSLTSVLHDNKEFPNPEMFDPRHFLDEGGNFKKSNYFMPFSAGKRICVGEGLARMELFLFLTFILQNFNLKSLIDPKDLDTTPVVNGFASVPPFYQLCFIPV
# Sequence of Cytochrome P450 2C9 (P11712 whole entry): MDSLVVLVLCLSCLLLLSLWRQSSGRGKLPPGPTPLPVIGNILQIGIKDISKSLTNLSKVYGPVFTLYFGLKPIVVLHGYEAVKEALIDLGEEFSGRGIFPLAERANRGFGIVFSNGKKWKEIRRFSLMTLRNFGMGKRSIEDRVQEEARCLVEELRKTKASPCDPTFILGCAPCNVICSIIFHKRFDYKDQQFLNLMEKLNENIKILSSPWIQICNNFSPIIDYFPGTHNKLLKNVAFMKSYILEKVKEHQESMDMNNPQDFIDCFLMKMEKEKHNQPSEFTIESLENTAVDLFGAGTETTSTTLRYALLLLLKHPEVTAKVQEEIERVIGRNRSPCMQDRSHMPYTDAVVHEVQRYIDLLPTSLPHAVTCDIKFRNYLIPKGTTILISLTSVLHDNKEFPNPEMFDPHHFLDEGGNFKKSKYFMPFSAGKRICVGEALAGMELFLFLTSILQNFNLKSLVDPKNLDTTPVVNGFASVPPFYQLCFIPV
# Sequence of Cytochrome P450 3A4 (P08684 whole entry): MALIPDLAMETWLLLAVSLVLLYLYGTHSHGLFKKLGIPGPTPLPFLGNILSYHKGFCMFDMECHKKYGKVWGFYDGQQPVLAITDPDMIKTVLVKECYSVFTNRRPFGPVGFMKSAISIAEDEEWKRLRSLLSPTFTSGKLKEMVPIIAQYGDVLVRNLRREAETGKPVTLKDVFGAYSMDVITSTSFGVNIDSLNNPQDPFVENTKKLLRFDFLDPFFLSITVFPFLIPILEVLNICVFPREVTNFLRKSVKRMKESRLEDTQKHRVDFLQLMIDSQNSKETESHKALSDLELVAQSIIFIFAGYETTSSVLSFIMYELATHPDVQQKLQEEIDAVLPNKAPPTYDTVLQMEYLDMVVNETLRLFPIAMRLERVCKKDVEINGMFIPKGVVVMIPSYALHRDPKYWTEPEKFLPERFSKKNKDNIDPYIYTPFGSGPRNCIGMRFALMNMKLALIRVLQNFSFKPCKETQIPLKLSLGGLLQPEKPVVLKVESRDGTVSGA
# Sequence of Glutamate receptor 2 (P42262 whole entry): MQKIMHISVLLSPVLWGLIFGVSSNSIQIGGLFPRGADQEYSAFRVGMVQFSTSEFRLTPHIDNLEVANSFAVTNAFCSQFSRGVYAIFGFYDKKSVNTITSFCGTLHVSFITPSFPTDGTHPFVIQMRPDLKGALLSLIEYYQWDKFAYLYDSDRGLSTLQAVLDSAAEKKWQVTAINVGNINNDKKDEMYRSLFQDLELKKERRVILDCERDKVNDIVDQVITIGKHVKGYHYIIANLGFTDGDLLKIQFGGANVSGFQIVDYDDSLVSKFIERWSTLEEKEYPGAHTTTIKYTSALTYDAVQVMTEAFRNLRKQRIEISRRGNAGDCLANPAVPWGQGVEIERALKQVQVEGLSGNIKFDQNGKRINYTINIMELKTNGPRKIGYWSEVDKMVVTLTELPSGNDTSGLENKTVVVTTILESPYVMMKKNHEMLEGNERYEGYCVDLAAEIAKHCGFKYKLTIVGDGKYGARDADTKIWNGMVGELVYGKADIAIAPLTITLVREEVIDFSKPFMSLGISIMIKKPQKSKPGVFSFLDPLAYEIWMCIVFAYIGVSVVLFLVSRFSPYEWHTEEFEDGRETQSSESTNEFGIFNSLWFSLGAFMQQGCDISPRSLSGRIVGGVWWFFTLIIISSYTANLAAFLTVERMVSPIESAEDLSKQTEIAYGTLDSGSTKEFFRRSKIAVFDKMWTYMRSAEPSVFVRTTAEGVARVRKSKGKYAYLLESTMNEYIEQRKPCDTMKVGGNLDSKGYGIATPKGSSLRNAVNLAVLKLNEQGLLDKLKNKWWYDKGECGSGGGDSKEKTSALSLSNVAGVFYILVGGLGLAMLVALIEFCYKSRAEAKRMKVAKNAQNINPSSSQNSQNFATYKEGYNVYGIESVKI
# Sequence of Cytochrome P450 2D6 (P10635 whole entry): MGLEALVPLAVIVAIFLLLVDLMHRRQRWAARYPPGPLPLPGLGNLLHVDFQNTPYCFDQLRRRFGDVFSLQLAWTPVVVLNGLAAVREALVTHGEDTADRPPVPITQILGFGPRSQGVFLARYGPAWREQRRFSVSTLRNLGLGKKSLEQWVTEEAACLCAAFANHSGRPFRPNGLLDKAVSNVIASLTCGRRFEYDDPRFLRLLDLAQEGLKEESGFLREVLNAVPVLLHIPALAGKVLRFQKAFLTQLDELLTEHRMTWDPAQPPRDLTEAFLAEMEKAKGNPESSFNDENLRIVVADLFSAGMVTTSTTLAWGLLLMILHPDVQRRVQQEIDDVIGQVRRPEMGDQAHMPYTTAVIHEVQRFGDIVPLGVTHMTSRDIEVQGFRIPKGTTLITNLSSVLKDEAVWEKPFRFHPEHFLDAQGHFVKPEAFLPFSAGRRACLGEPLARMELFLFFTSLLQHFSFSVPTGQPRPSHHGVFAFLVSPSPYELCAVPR
Compound,EC50 (Glutamate receptor 2),IC50 (Liver microsomes [1]),IC50 (Cytochrome P450 2C9),IC50 (Liver microsomes [2]),IC50 (Cytochrome P450 2C19),IC50 (Cytochrome P450 1A2),IC50 (Cytochrome P450 2D6),IC50 (Cytochrome P450 3A4),pKa (physchem),also measured
CC(C)S(=O)(=O)NC1Cc2ccc(-c3ccc(F)nc3)cc2C1 (stereo unspecified),–,1100 nM,> 10 µM,1700 nM,> 10 µM,> 10 µM,> 10 µM,> 10 µM,–,–
CC(C)S(=O)(=O)NC1Cc2ccc(-c3cccnc3F)cc2C1 (stereo unspecified),15.8 µM,2500 nM,> 10 µM,2100 nM,9 µM,> 10 µM,> 10 µM,> 10 µM,–,Kp (in vivo): 1.5
CC(=O)Nc1cccc(-c2ccc3c(c2)CC(NS(=O)(=O)C(C)C)C3)c1 (stereo unspecified),20 µM,–,–,–,–,–,–,–,–,"fraction unbound at 6 h, 1 ug/ml [3]: 0.051"
CC(C)S(=O)(=O)NC1Cc2ccc(-c3cccc(CN4CCCS4(=O)=O)c3)cc2C1 (stereo unspecified),0.398 µM,–,–,–,–,–,–,–,–,"fraction unbound at 6 h, 1 ug/ml [3]: 0.033"
CC(C)S(=O)(=O)N[C@@H]1Cc2ccc(-c3ccc(F)nc3)cc2C1,–,–,–,–,–,–,> 10 µM,–,–,–
CC(C)S(=O)(=O)NC1Cc2ccc(-c3cccc(N(C)S(C)(=O)=O)c3)cc2C1 (stereo unspecified),1.26 µM,–,–,–,–,–,–,–,–,"fraction unbound at 6 h, 1 ug/ml [3]: 0.036; Kp (in vivo): 0.4; AUC(0-t) [15]: 161 ng·h/mL; efflux ratio (MDR1 (human)): 3.2"
Cc1ccncc1-c1ccc2c(c1)CC(NS(=O)(=O)C(C)C)C2 (stereo unspecified),20 µM,4500 nM,> 10 µM,1400 nM,> 10 µM,> 10 µM,> 10 µM,> 9 µM,5.8,–
CC(C)C(=O)Nc1cccc(-c2ccc3c(c2)CC(NS(=O)(=O)C(C)C)C3)c1 (stereo unspecified),> 50.1 µM,–,–,–,–,–,–,–,–,–
CC(C)S(=O)(=O)NC1Cc2ccc(-c3cccnc3)cc2C1 (stereo unspecified),15.8 µM,2100 nM,> 10 µM,< 500 nM,> 10 µM,0.6 µM,> 10 µM,> 10 µM,5.1,–
CC(C)S(=O)(=O)NC1Cc2ccc(-c3cccc(CN4CCCC4=O)c3)cc2C1 (stereo unspecified),12.6 µM,–,–,–,–,–,–,–,–,"fraction unbound at 6 h, 1 ug/ml [3]: 0.024; Kp (in vivo): 0.4; AUC(0-t) [15]: 36 ng·h/mL"
CC(C)S(=O)(=O)NC1Cc2ccc(-c3cccc(NS(C)(=O)=O)c3)cc2C1 (stereo unspecified),0.794 µM,–,–,–,–,–,–,–,–,"fraction unbound at 6 h, 1 ug/ml [3]: 0.041; Kp (in vivo): 0.1; AUC(0-t) [15]: 1130 ng·h/mL; efflux ratio (MDR1 (human)): 5.8"
Cc1ccc(-c2ccc3c(c2)CC(NS(=O)(=O)C(C)C)C3)nc1 (stereo unspecified),3.16 µM,7300 nM,> 10 µM,800 nM,> 10 µM,> 10 µM,> 10 µM,> 10 µM,4.9,–

# Now from value to compound, other results behind:
EC50 (Glutamate receptor 2),IC50 (Liver microsomes [1]),IC50 (Cytochrome P450 2C9),IC50 (Liver microsomes [2]),IC50 (Cytochrome P450 2C19),IC50 (Cytochrome P450 1A2),IC50 (Cytochrome P450 2D6),IC50 (Cytochrome P450 3A4),pKa (physchem),Compound,also measured
> 50.1 µM,–,–,–,–,–,–,–,–,CC(=O)c1cccc(-c2ccc3c(c2)CC(NS(=O)(=O)C(C)C)C3)c1 (stereo unspecified),–
6.31 µM,600 nM,> 10 µM,500 nM,> 10 µM,> 10 µM,> 10 µM,> 10 µM,2.7,CC(C)S(=O)(=O)NC1Cc2ccc(-c3ccc(F)cn3)cc2C1 (stereo unspecified),–
2 µM,1600 nM,> 10 µM,< 500 nM,> 10 µM,> 10 µM,> 10 µM,> 10 µM,2.7,CC(C)S(=O)(=O)N[C@H]1Cc2ccc(-c3ccc(F)cn3)cc2C1,"half-life [4]: 60 min; Tmax [5]: 30 min; Activity (Brain [6]): 97.9%; Drug uptake (Brain [7]): 70 ng/g; Cmax [8]: 436 ng/mL; bioavailability [9]: 72%; fraction unbound at 6 h, 1 ug/ml [3]: 0.097; Kp (in vivo): 1.4; Vd [10]: 2.2 L/kg; inhibition (Rattus norvegicus [11]): inactive; clearance [12]: 24 mL/min/kg; minimal effective dose (Rattus norvegicus [13]): 0.3 mg/kg; Drug uptake (Blood): 37 ng/mL; Activity (Rattus norvegicus [14]): Dose-dependent effect; efflux ratio (MDR1 (human)): 1.1"
3.16 µM,2000 nM,> 10 µM,700 nM,> 10 µM,> 10 µM,> 10 µM,> 10 µM,5.7,Cc1ccc(-c2ccc3c(c2)CC(NS(=O)(=O)C(C)C)C3)cn1 (stereo unspecified),Kp (in vivo): 1.4
0.398 µM,–,–,–,–,–,–,–,–,CC(C)S(=O)(=O)NC[C@H](C)c1ccc(NC(=O)c2cc(F)cc(F)c2)cc1,–
2 µM,3500 nM,> 10 µM,< 600 nM,> 10 µM,> 10 µM,> 10 µM,> 10 µM,5.8,Cc1ccc(-c2ccc3c(c2)C[C@@H](NS(=O)(=O)C(C)C)C3)cn1,"half-life [4]: 36 min; Tmax [5]: 60 min; Activity (Brain [6]): 96.7%; Cmax [8]: 116 ng/mL; bioavailability [9]: 25%; fraction unbound at 6 h, 1 ug/ml [3]: 0.078; Kp (in vivo): 1.3; Vd [10]: 2.4 L/kg; clearance [12]: 55 mL/min/kg; efflux ratio (MDR1 (human)): 0.9"
7.94 µM,< 800 nM,> 10 µM,< 500 nM,> 10 µM,> 10 µM,> 10 µM,> 10 µM,–,CC(C)S(=O)(=O)NC1Cc2ccc(-c3ccc(Cl)cn3)cc2C1 (stereo unspecified),–
7.94 µM,–,–,–,–,–,–,–,–,CC(C)S(=O)(=O)NC1Cc2ccc(-c3cccc(S(=O)(=O)N(C)C)c3)cc2C1 (stereo unspecified),–
6.31 µM,–,–,–,–,–,–,–,–,CC(=O)Cc1cccc(-c2ccc3c(c2)CC(NS(=O)(=O)C(C)C)C3)c1 (stereo unspecified),–
20 µM,14000 nM,> 10 µM,1300 nM,> 10 µM,> 10 µM,> 10 µM,> 10 µM,4.9,Cc1cccnc1-c1ccc2c(c1)CC(NS(=O)(=O)C(C)C)C2 (stereo unspecified),–
2.51 µM,–,–,–,–,–,–,–,–,CCS(=O)(=O)Nc1cccc(-c2ccc3c(c2)CC(NS(=O)(=O)C(C)C)C3)c1 (stereo unspecified),–
63.1 µM,< 500 nM,> 10 µM,700 nM,> 10 µM,> 10 µM,> 10 µM,> 10 µM,–,CC(C)S(=O)(=O)NC1Cc2ccc(-c3cncc(C#N)c3)cc2C1 (stereo unspecified),–
> 50.1 µM,–,–,–,–,–,–,–,–,CC(C)S(=O)(=O)NC1Cc2ccc(-c3cccc(C#N)c3)cc2C1 (stereo unspecified),–

# Reference: ChEMBL document CHEMBL1212831, “Discovery of N-[(2S)-5-(6-fluoro-3-pyridinyl)-2,3-dihydro-1H-inden-2-yl]-2-propanesulfonamide, a novel clinical AMPA receptor positive modulator” (J Med Chem, 2010)
